Where “and” joins values, the source holds several entries; their conditions need not be identical. Identical values can stand only once. Like-named read-outs stand apart in the source and are kept apart here.
Columns and labels:
[1] = system: P-gp
[2] = system: P-gp; assay: in vitro; details: human, EC50 to up-regulate P-gp expression
[3] = ref Facts & Comparisons 4.0, online edition, cited from earlier work
[4] = system: P-gp; details: rat, three-day in vivo treatment, 20 mg/kg once daily; cited from earlier work
[5] = system: MDR1 mRNA; details: LS-180 cells, 48 h, 50 μM
[6] = system: P-gp; assay: in vitro; details: human, EC50 to up-regulate P-gp activity
[7] = system: P-gp; assay: Western blot analysis of P-gp protein expression in drug-treated LS-180 cells

Q: For `Cn1c(=O)c2c(ncn2C)n(C)c1=O` [Caffeine, caffeine], which “increase in P-gp activity” value [1] is on record?
A: 250–300%

Q: And the EC50 at 48 h [2]?
A: 9.1 µM

Q: And the “plasma concentration, range” value ([3]; after 250 mg dose)?
A: 25 to 130 µM

Q: With hyperforin as the compound, how does the “increase in P-gp activity” value ([1]; LS-180 cells, 48 h, 50 nM) read?
A: 110%

Q: What about the “increase in P-gp activity” value ([1]; LS-180 cells, 48 h, 150 nM) of the same compound?
A: 190%

Q: For `C[C@@H]1C[C@H]2[C@@H]3CCC4=CC(=O)C=C[C@]4(C)[C@@]3(F)[C@@H](O)C[C@]2(C)[C@@]1(O)C(=O)CO` [Dexamethasone, dexamethasone], which EC50 at 48 h [2] is on record?
A: 46 µM

Q: Which results are given for `CO[C@H]1/C=C/O[C@@]2(C)Oc3c(C)c(O)c4c(O)c(c(/C=N/N5CCN(C)CC5)c(O)c4c3C2=O)NC(=O)/C(C)=C\C=C\[C@H](C)[C@H](O)[C@@H](C)[C@@H](O)[C@@H](C)[C@H](OC(C)=O)[C@@H]1C` [Rifampicin]?
A: increase in P-gp activity ([1]; LS-180 cells, 48 h, over the range 5–100 μM): 60–290%; EC50 at 48 h [2]: 5 µM; plasma concentrations, range ([3]; following 600 mg dose): 5 to 38 µM

Q: Which “increase in P-gp expression at the BBB” value [4] does the source give for `CC(C)c1nc(CN(C)C(=O)N[C@H](C(=O)N[C@@H](Cc2ccccc2)C[C@H](O)[C@H](Cc2ccccc2)NC(=O)OCc2cncs2)C(C)C)cs1` [ritonavir] here?
A: 30%

Q: Which results are given for `C1CCc2nnnn2CC1` [Pentylenetetrazole, pentylenetetrazole]?
A: fold increase in MDR1 mRNA level [5]: ~ 3 fold and 3–4 fold; induction in P-gp activity ([1]; LS-180 cells, 48 h, 50 μM): 70%; increase in P-gp activity ([1]; LS-180 cells, 48 h, concentration range 25–100 μM): ~ 80%; increase in P-gp activity ([1]; LS-180 cells, 48 h, concentration range 25–100 μM, listed as pentylenetetrazole): 80%; Emax (fold ↑ in P-gp activity) ([1]; LS-180 cells, 48 h, four-parameter Hill fit): 2.0 fold; EC50 at 48 h [6]: 11.8 µM; increase in P-gp expression ([7]; 48 h, 50 μM): ~ 10%; increase in P-gp expression ([7]; 48 h, 100 μM): 100%; up-regulation of P-gp protein levels ([7]; 48 h, concentrations at 50 μM and higher): ≤ 2 fold; EC50 at 48 h ([7]; human, EC50 to up-regulate P-gp expression, following normalization to 100%): > 50 µM

Reference: PMC3172709 (Journal of pharmacy & pharmaceutical sciences : a …, 2011)
